Data from US20240116985A1, “STAPLED PEPTIDES AND METHODS THEREOF” (priority 2020, published 2024).
Converted amounts (≈) assume the structure as drawn. Like-named read-outs stand apart in the source and are kept apart here.

Assays:
[1] = CHI Log D procedure; format: physicochemical; conditions: for CHI Log D: pH 7.4; for chromatographic logD: pH 7.4, CHI Log D
[2] = Solubility in PBS; format: physicochemical
Summary of the method: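 Steps: ultracentrifuge the peptide PBS solution, inject the supernatant on HPLC, inject a 50 μM peptide DMSO solution as reference, then calculate solubility as area ratio (PBS/DMSO) × 50 uM.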

[3] = target: T1, full-length beta-Catenin (Uniprot ID P35222) (Homo sapiens, UniProt P35222); assay: Fluorescence polarization IC50 (beta-catenin / 5FAM-TCF4 10-53 competition); format: binding
T1 construct: 10 nM full-length beta-Catenin (Uniprot ID P35222)
T1 sequence (P35222 1-781): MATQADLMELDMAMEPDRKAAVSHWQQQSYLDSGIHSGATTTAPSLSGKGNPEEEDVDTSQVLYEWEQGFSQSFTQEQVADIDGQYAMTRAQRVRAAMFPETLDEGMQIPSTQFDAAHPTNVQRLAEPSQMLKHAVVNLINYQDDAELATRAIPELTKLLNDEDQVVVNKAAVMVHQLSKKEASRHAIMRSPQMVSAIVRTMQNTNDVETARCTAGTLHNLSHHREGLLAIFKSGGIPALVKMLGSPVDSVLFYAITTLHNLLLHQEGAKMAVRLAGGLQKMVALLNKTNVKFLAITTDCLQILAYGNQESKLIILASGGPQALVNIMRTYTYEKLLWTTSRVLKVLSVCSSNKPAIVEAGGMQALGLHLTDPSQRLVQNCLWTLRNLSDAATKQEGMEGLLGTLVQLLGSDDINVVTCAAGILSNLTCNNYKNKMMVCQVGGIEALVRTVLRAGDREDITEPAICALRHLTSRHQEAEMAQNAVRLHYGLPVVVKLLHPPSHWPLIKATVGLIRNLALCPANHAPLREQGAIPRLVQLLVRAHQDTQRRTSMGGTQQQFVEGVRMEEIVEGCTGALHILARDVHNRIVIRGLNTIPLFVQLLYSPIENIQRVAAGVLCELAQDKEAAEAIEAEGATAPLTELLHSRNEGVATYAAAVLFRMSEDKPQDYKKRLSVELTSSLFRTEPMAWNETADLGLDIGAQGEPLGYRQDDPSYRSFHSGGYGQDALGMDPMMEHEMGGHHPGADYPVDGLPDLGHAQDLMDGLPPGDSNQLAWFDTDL

[4] = fluorescence polarization, read-out: beta-Catenin FP IC50

SMILES | CHI Log D [1] | Solubility [2] | IC50 [3, 4] | IC50 ([3]; read-out: FP EC50) | chromatographic logD [1] | Solubility ([2]; Solubility (uM)) | IC50 ([3]; read-out: beta-Catenin FP IC50)
CC[C@@H](C)[C@@H](NC(=O)[C@H](CCC(N)=O)NC(=O)[C@H](Cc1csc2ccccc12)NC(=O)[C@H](Cc1ccccc1)NC(=O)[C@]1(C)CCCCCCC=CCCCC2(CCCC=CC[C@]3(CCCN3C(C)=O)C(=O)N[C@@H](CC(=O)O)C(=O)N[C@@H](CC(C)C)C(=O)N2)C(=O)N[C@@H](CC(=O)O)C(=O)N[C@@H](CCC(=O)O)C(=O)N[C@@H](C)C(=O)N[C@@H](C)C(=O)N[C@@H](Cc2ccccc2)C(=O)N[C@@H](CC(N)=O)C(=O)N1)C(N)=O (stereo partly drawn) [I-735, Ac-PL3-Asp-Leu-B5-Asp-Glu-Ala-Ala-Phe-Asn-S8-Phe-BztA-Gln-dIle-NH2] | 2.738 | 43 µM (≈ 85.2 µg/mL) | 0.246 µM | 0.246 µM |  |  | 
CC(=O)N1CCC[C@]12CC=CCCCC1(CCCC=CCCCCCC[C@@](C)(C(=O)N[C@@H](Cc3ccccc3)C(=O)N[C@@H](Cc3csc4ccccc34)C(=O)N[C@@H](CCC(N)=O)C(=O)NC(C)(C)C(N)=O)NC(=O)[C@H](CC(N)=O)NC(=O)[C@H](Cc3ccccc3)NC(=O)[C@H](C)NC(=O)[C@H](C)NC(=O)[C@H](CCC(=O)O)NC(=O)[C@H](CC(=O)O)NC1=O)NC(=O)[C@H](CC(C)C)NC(=O)[C@H](CC(=O)O)NC2=O (stereo partly drawn) [I-737, Ac-PL3-Asp-Leu-B5-Asp-Glu-Ala-Ala-Phe-Asn-S8-Phe-BztA-Gln-Aib-NH2] |  |  | 0.353 µM |  | 2.73 | 44 µM (≈ 86 µg/mL) | 
CC(=O)N1CCC[C@]12CC=CCCCC1(CCCC=CCCCCCC[C@@](C)(C(=O)N[C@@H](Cc3ccccc3)C(=O)N[C@@H](Cc3csc4ccccc34)C(=O)N[C@@H](Cc3c[nH]cn3)C(=O)N[C@@H](C)C(N)=O)NC(=O)[C@H](CC(N)=O)NC(=O)[C@H](Cc3ccccc3)NC(=O)[C@H](C)NC(=O)[C@H](C)NC(=O)[C@H](CCC(=O)O)NC(=O)[C@H](CC(=O)O)NC1=O)NC(=O)[C@H](CC(C)C)NC(=O)[C@H](CC(=O)O)NC2=O (stereo partly drawn) [I-738, Ac-PL3-Asp-Leu-B5-Asp-Glu-Ala-Ala-Phe-Asn-S8-Phe-BztA-His-Ala-NH2] |  |  | 0.063 µM |  | 2.46 | 41 µM (≈ 79.9 µg/mL) | 
CC(=O)N1CCC[C@]12CC=CCCCC1(CCCC=CCCCCCC[C@@](C)(C(=O)N[C@@H](Cc3ccccc3)C(=O)N[C@@H](Cc3csc4ccccc34)C(=O)N[C@@H](Cc3c[nH]cn3)C(=O)N[C@H](C)C(N)=O)NC(=O)[C@H](CC(N)=O)NC(=O)[C@H](Cc3ccccc3)NC(=O)[C@H](C)NC(=O)[C@H](C)NC(=O)[C@H](CCC(=O)O)NC(=O)[C@H](CC(=O)O)NC1=O)NC(=O)[C@H](CC(C)C)NC(=O)[C@H](CC(=O)O)NC2=O (stereo partly drawn) [I-739, Ac-PL3-Asp-Leu-B5-Asp-Glu-Ala-Ala-Phe-Asn-S8-Phe-BztA-His-dAla-NH2] |  | 10 µM (≈ 19.5 µg/mL) | 0.053 µM |  | 2.41 |  | 
CC[C@H](C)[C@H](NC(=O)[C@H](Cc1c[nH]cn1)NC(=O)[C@H](Cc1csc2ccccc12)NC(=O)[C@H](Cc1ccccc1)NC(=O)[C@]1(C)CCCCCCC=CCCCC2(CCCC=CC[C@]3(CCCN3C(C)=O)C(=O)N[C@@H](CC(=O)O)C(=O)N[C@@H](CC(C)C)C(=O)N2)C(=O)N[C@@H](CC(=O)O)C(=O)N[C@@H](CCC(=O)O)C(=O)N[C@@H](C)C(=O)N[C@@H](C)C(=O)N[C@@H](Cc2ccccc2)C(=O)N[C@@H](CC(N)=O)C(=O)N1)C(N)=O (stereo partly drawn) [I-741, Ac-PL3-Asp-Leu-B5-Asp-Glu-Ala-Ala-Phe-Asn-S8-Phe-BztA-His-Ile-NH2] | 2.915 | 10 µM (≈ 19.9 µg/mL) | 0.226 µM | 0.226 µM |  |  | 
CC[C@@H](C)[C@@H](NC(=O)[C@H](Cc1c[nH]cn1)NC(=O)[C@H](Cc1csc2ccccc12)NC(=O)[C@H](Cc1ccccc1)NC(=O)[C@]1(C)CCCCCCC=CCCCC2(CCCC=CC[C@]3(CCCN3C(C)=O)C(=O)N[C@@H](CC(=O)O)C(=O)N[C@@H](CC(C)C)C(=O)N2)C(=O)N[C@@H](CC(=O)O)C(=O)N[C@@H](CCC(=O)O)C(=O)N[C@@H](C)C(=O)N[C@@H](C)C(=O)N[C@@H](Cc2ccccc2)C(=O)N[C@@H](CC(N)=O)C(=O)N1)C(N)=O (stereo partly drawn) [I-742, Ac-PL3-Asp-Leu-B5-Asp-Glu-Ala-Ala-Phe-Asn-S8-Phe-BztA-His-dIle-NH2] |  |  | 0.159 µM |  | 2.8 | 27 µM (≈ 53.8 µg/mL) | 
CC(=O)N1CCC[C@]12CC=CCCCC1(CCCC=CCCCCCC[C@@](C)(C(=O)N[C@@H](Cc3ccccc3)C(=O)N[C@@H](Cc3csc4ccccc34)C(=O)N[C@@H](Cc3c[nH]cn3)C(=O)NC(C)(C)C(N)=O)NC(=O)[C@H](CC(N)=O)NC(=O)[C@H](Cc3ccccc3)NC(=O)[C@H](C)NC(=O)[C@H](C)NC(=O)[C@H](CCC(=O)O)NC(=O)[C@H](CC(=O)O)NC1=O)NC(=O)[C@H](CC(C)C)NC(=O)[C@H](CC(=O)O)NC2=O (stereo partly drawn) [I-743, Ac-PL3-Asp-Leu-B5-Asp-Glu-Ala-Ala-Phe-Asn-S8-Phe-BztA-His-Aib-NH2] |  |  | 0.085 µM |  | 2.6 | 29 µM (≈ 56.9 µg/mL) | 
CC(=O)N1CCC[C@]12CC=CCCCC1(CCCC=CCCCCCC[C@@](C)(C(=O)N[C@@H](Cc3ccccc3)C(=O)N[C@@H](Cc3csc4ccccc34)C(=O)N[C@H](Cc3c[nH]cn3)C(N)=O)NC(=O)[C@H](CC(N)=O)NC(=O)[C@H](Cc3ccccc3)NC(=O)[C@H](C)NC(=O)[C@H](C)NC(=O)[C@H](CCC(=O)O)NC(=O)[C@H](CC(=O)O)NC1=O)NC(=O)[C@H](CC(C)C)NC(=O)[C@H](CC(=O)O)NC2=O (stereo partly drawn) [I-745, Ac-PL3-Asp-Leu-B5-Asp-Glu-Ala-Ala-Phe-Asn-S8-Phe-BztA-dHis-NH2] | 2.61 | 10 µM (≈ 18.8 µg/mL) | 0.08 µM | 0.08 µM |  |  | 

Second part, the compound after the results:

CHI Log D [1] | Solubility [2] | IC50 [3, 4] | IC50 ([3]; read-out: FP EC50) | chromatographic logD [1] | Solubility ([2]; Solubility (uM)) | IC50 ([3]; read-out: beta-Catenin FP IC50) | SMILES
2.492 | 15 µM (≈ 28.4 µg/mL) | 2.39 µM | 2.39 µM |  |  |  | CC(=O)N1CCC[C@]12CC=CCCCC1(CCCC=CCCCCCC[C@@](C)(C(=O)N[C@@H](Cc3ccccc3)C(=O)N[C@@H](Cc3csc4ccccc34)C(=O)N(C)[C@@H](Cc3cnc[nH]3)C(N)=O)NC(=O)[C@H](CC(N)=O)NC(=O)[C@H](Cc3ccccc3)NC(=O)[C@H](C)NC(=O)[C@H](C)NC(=O)[C@H](CCC(=O)O)NC(=O)[C@H](CC(=O)O)NC1=O)NC(=O)[C@H](CC(C)C)NC(=O)[C@H](CC(=O)O)NC2=O (stereo partly drawn) [I-747, Ac-PL3-Asp-Leu-B5-Asp-Glu-Ala-Ala-Phe-Asn-S8-Phe-BztA-NMeHis-NH2]
2.684 | 47 µM (≈ 86.6 µg/mL) |  | 0.088 µM |  |  | 0.088 µM | CC(=O)N1CCC[C@]12CC=CCCCC1(CCCC=CCCCCCC[C@@](C)(C(=O)N[C@@H](Cc3ccccc3)C(=O)N[C@@H](Cc3csc4ccccc34)C(=O)N[C@@H](C(N)=O)[C@H](C)O)NC(=O)[C@H](CC(N)=O)NC(=O)[C@H](Cc3ccccc3)NC(=O)[C@H](C)NC(=O)[C@H](C)NC(=O)[C@H](CCC(=O)O)NC(=O)[C@H](CC(=O)O)NC1=O)NC(=O)[C@H](CC(C)C)NC(=O)[C@H](CC(=O)O)NC2=O (stereo partly drawn) [I-755, Ac-PL3-Asp-Leu-B5-Asp-Glu-Ala-Ala-Phe-Asn-S8-Phe-BztA-dThr-NH2]
 |  |  |  | 2.61 | 49 µM (≈ 89.6 µg/mL) | 0.056 µM | CC(=O)N1CCC[C@]12CC=CCCCC1(CCCC=CCCCCCC[C@@](C)(C(=O)N[C@@H](Cc3ccccc3)C(=O)N[C@@H](Cc3csc4ccccc34)C(=O)N[C@H](CO)C(N)=O)NC(=O)[C@H](CC(N)=O)NC(=O)[C@H](Cc3ccccc3)NC(=O)[C@H](C)NC(=O)[C@H](C)NC(=O)[C@H](CCC(=O)O)NC(=O)[C@H](CC(=O)O)NC1=O)NC(=O)[C@H](CC(C)C)NC(=O)[C@H](CC(=O)O)NC2=O (stereo partly drawn) [I-756, Ac-PL3-Asp-Leu-B5-Asp-Glu-Ala-Ala-Phe-Asn-S8-Phe-BztA-dSer-NH2]
2.571 | 47 µM (≈ 87.2 µg/mL) |  | 0.047 µM |  |  | 0.047 µM | CC(=O)N1CCC[C@]12CC=CCCCC1(CCCC=CCCCCCC[C@@](C)(C(=O)N[C@@H](Cc3ccccc3)C(=O)N[C@@H](Cc3csc4ccccc34)C(=O)N[C@H](CC(N)=O)C(N)=O)NC(=O)[C@H](CC(N)=O)NC(=O)[C@H](Cc3ccccc3)NC(=O)[C@H](C)NC(=O)[C@H](C)NC(=O)[C@H](CCC(=O)O)NC(=O)[C@H](CC(=O)O)NC1=O)NC(=O)[C@H](CC(C)C)NC(=O)[C@H](CC(=O)O)NC2=O (stereo partly drawn) [I-758, Ac-PL3-Asp-Leu-B5-Asp-Glu-Ala-Ala-Phe-Asn-S8-Phe-BztA-dAsn-NH2]
2.212 | 45 µM (≈ 86.9 µg/mL) |  | 0.014 µM |  |  | 0.014 µM | CC(=O)N1CCC[C@]12CC=CCCCC1(CCCC=CCCCOC(=O)N3CC[C@@](C(=O)N[C@@H](Cc4ccsc4)C(=O)N[C@@H](Cc4csc5ccccc45)C(=O)N[C@@H](CCC(N)=O)C(N)=O)(C3)NC(=O)[C@H](CCC(N)=O)NC(=O)[C@H](Cc3ccccc3)NC(=O)[C@H](C)NC(=O)[C@H](C)NC(=O)[C@H](CC(=O)O)NC(=O)[C@H](CC(=O)O)NC1=O)NC(=O)[C@H](CC(C)(C)C)NC(=O)[C@H](CC(=O)O)NC2=O (stereo partly drawn) [I-764, Ac-PL3-Asp-Npg-B5-Asp-Asp-Ala-Ala-Phe-Gln-PyrS2-3Thi-BztA-Gln-NH2]
